1 compound from patent US11920126B2, “Bio-manufacturing process” (priority 2018, dated 2024) can be followed below.

One test has as its system Trichoderma. The experiment in a line: Trichoderma-loaded feedstocks co-cultured with engineered Streptomyces. The test is classed as cell-based. The note with it: feedstocks loaded with Trichoderma spores, no production fungus. On the procedure: The efficacy of inhibitory properties was tested in feedstocks without the addition of the fungus. Feedstocks were loaded with Trichoderma spores, a common mold contaminate. Engineered Streptomyces was then co-cultured in these contaminated feedstocks, and the inhibitory effects were recorded.

A further test deals with Ascomycete contaminants. The experiment in a line: natamycin inhibition, in vitro liquid media culture. The conditions noted are these: cultured in vitro (liquid media). The test is classed as cell-based. From the text:
Streptomyces natalensis naturally produces low levels of pimaricin, also known as natamycin, which is a fungicide with the ability to bind to sterols found in fungal cell membranes, thus making the cell wall permeable and lysing the cell. This fungicide has greater activity against Ascomycete contaminants, versus production fungi Ganoderma or Trametes. Natamycin's affinity for non-basidiomycetes species make this particular antifungal an attractive target for expression during cultivated manufacturing.
By up-regulating the expression of pimM, the total yield of natamycin produced by our Streptomyces natalensis strains was increased. In this respect, natamycin production in wild type Streptomyces natalensis […] the effective range of inhibition (5 ug/mL) when cultured in vitro (liquid media). […] Engineering a bacterium strain with increased natamycin potency helps to reduce the bacterial loading needed for substrate bioburden mitigation, thus further reducing process and material cost.

As for `C[C@@H]1C/C=C/C=C/C=C/C=C/[C@H](O[C@@H]2O[C@H](C)[C@@H](O)[C@H](N)[C@@H]2O)C[C@@H]2O[C@](O)(C[C@@H](O)C[C@H]3O[C@@H]3/C=C/C(=O)O1)C[C@H](O)[C@H]2C(=O)O` [natamycin], in the test on Trichoderma, the “inhibitory effect of Trichoderma in feedstocks as a function of natamycin expression” value is recorded as “strong linear inhibitory effect”. For the same compound, the “effective range of inhibition” value in the test on Ascomycete contaminants was 5 µg/mL.
